Entries after “also recorded” stand apart in the source; their conditions may differ.
Columns and labels:
Ter 119+ erythrocytes = assay: Hypoxia-reoxygenation experimental vaso-occlusive crisis: vascular congestion with erythrocytes on histological sections; type: in vivo, sickle cell mice (SS)
Method: (§1) Experiments were performed on 4-6 week-old sex matched healthy control (Hba^tm1(HBA)Tow Hbb^tm3(HBG1,HBB) Tow) (HbAA (hα/hα::β^A/β^A)) and SCD (Hba^tm1(HBA)Tow Hbb^tm2(HBG1,HBB*)Tow) (HbSS (hα/hα::βS/βS)) mice as well as SAD transgenic sickle mice with or without Trem-1 gene deletion (TREM-1 KO). The animal protocol was approved by the Paris Descartes University Animal Care and Use Committee and the French Ministry of Agriculture. Animals were anesthetized with isoflurane, and whole blood was collected from each mouse via retro-orbital venipuncture by heparinized microcapillaries. In anesthetized animals, organs were immediately removed and divided into two and either immediately frozen in liquid nitrogen or fixed in 10% formalin and embedded in paraffin for histology.
(§2) In order to test the pharmacological inhibition of TREM-1 on erythrocyte vascular congestion and neutrophils infiltrates, homozygous HbS (SS) mice were subjected to 14 hours hypoxia (8% oxygen) and then 1 hours reoxygenation (21% oxygen) to trigger acute vaso-occlusive crisis as previously described (Sabaa N et al. J Clin Invest. 2008 May; 118(5):1924-33). The TREM-1 inhibitory peptide for each of the hypoxia-reoxygenation experiments was administered by intraperitoneal injection just prior to the onset of hypoxia, as well as at the end of hypoxia, at the beginning of the reoxygenation phase. These conditions reproduce a situation of severe hypoxia for SCD, provoking crises and damage related to ischemia-reperfusion. After this experiment, the tissues were analyzed in the same way as for the SS mice in the base state.

neutrophils = assay: Intravital microscopy of neutrophils in post-capillary venous microcirculation of the cremaster after TNFα injection; type: in vivo, HbSS knock-in sickle cell mice; settings: HbSS mice
Method: as §1
To characterize in vivo the effects of the TREM-1 pathway on neutrophils recruitment, we used a protocol as previously described (Koehl B et al. Haematologica. 2017 July; 102(7):1161-1172). Male mice were anaesthetized by spontaneous inhalation of isoflurane and maintained at 37° C. with a heating pad. The left jugular vein was cannulated to administer drugs and antibodies. […] 2 h after TNFα injection, the cremaster muscle was incised and neutrophils were monitored by injection of labeled Phycoerythrin-conjugated anti-Ly6G antibody (0.05 μg/g body weight, clone RB6-8C5, BD Biosciences Pharmingen). Venules were visualized with an intravital microscope (Zeiss Examiner D1) equipped with a water-immersion objective (Zeiss Plan-Apochromat 20×/1.0 NA) and fluorescence excitation was made through a Lambda DG-4 high-speed wavelength switcher (Sutter Instrument). […] Images were analyzed using SlideBook 6.0 software (Intelligent Imaging Innovations). The neutrophil rolling flux fraction, adhesion density, adhesion efficiency and transmigration were measured using playback assessment of 3-min digital time-lapse videos and 3D z-stack recordings of single unbranched venules (3 venules per mouse, 20-40 μm) from 2.5 hours to 5 hours after the TNFα challenge at 30-min intervals. […]

neutrophils (PMNs) = assay: Hypoxia-reoxygenation experimental vaso-occlusive crisis: abundance of neutrophils on histological sections; type: in vivo, sickle cell mice (SS)
Method: as §1, §2

[1] = histological sections of lung, SS LR12 vs SS PBS

LR12: 12 amino-acid TREM-1 inhibitory peptide LQEEDAGEYGCM, N-terminal 12 amino-acids of LR17 (TLT-1 derived) (Synthetic LR12)
vascular congestion with Ter 119+ erythrocytes, liver (Ter 119+ erythrocytes; histological sections of liver, SS LR12 vs SS PBS, intraperitoneal, hypoxia-reoxygenation): significant reduction | vascular congestion with Ter 119+ erythrocytes, lung (Ter 119+ erythrocytes; [1]): not in lung sections | vascular congestion with Ter 119+ erythrocytes, renal medulla (Ter 119+ erythrocytes; histological sections of renal medulla, SS LR12 vs SS PBS): significant reduction | vascular congestion with Ter 119+ erythrocytes, spleen (Ter 119+ erythrocytes; histological sections of spleen, SS LR12 vs SS PBS): significant reduction | vascular congestion of tissues (Ter 119+ erythrocytes; tissues of sickle cell mice (summary statement, FIGS. 3A-3D)): significant reduction | neutrophil rolling (neutrophils; between 3 h and 4 h30 post-injection of TNFα, LR12 6 mg/kg 10 min before and 3 mg/kg 3 h15 after TNFα, 2way ANOVA P value=0.0041): significant reduction; also recorded: reduces | neutrophil transmigration (neutrophils; from 3 h to 5 h post-TNFα, 2way ANOVA P value <0.0001): significant reduction; also recorded: reduces | neutrophil adhesion (neutrophils; throughout the experiment after TNFα, 2way ANOVA P value <0.0001): significant reduction; also recorded: reduces | abundance of neutrophils, liver (% green fluorescent surface) (neutrophils (PMNs); histological sections of liver, SS LR12 vs SS PBS): significant reduction | abundance of neutrophils, lung (% green fluorescent surface) (neutrophils (PMNs); [1]): significant reduction | abundance of neutrophils in tissues (neutrophils (PMNs); tissues of sickle cell mice during experimental vaso-occlusive crisis (summary statement, FIGS. 4A and 4B)): significant reduction

— patent publication US12673083B2, “TREM-1 inhibitors for the treatment of vaso-occlusions and tissue injuries in patients suffering from sickle cell disease” (INSERM (INSTITUT NATIONAL DE LA SANTÉ ET DE LA RECHERCHE …, priority 2019, dated 2026)
